Source: ChEMBL document CHEMBL1201862, “PubChem BioAssay data set” (2004)
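In this assay, cells in 96-well plates receive the compound at five concentrations for 48 hours. Endpoints are linearly interpolated between the surrounding concentrations. Abbreviation: GI50, concentration required for 50% inhibition of growth.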 The source made the active and inactive calls. Cut-off read from the data, not from the text of the source: active = GI50 up to about 1.1 µM and inactive = higher.

Tests used:
Experiment in all cases: NCI tumour cell line growth inhibition, 48 h
A549 = tested on: A549
CCRF-CEM = tested on: CCRF-CEM
HT-29 = tested on: HT-29
KM12 = tested on: KM12
LOX IMVI = tested on: LOX IMVI
Malme-3M = tested on: Malme-3M
NCI-H460 = tested on: NCI-H460
RPMI-8226 = tested on: RPMI-8226
RXF 393 = tested on: RXF 393
SF-268 = tested on: SF-268
SK-OV-3 = tested on: SK-OV-3
SNB-75 = tested on: SNB-75
SR = tested on: SR
TK-10 = tested on: TK-10
UO-31 = tested on: UO-31
OVCAR-5 = tested on: OVCAR-5
SF-539 = tested on: SF-539

Which GI50 (A549) does the source give for `O=C(CSc1nnc(-c2ccc(/N=C\c3ccc(Cl)cc3)cc2)o1)Nc1cccc([N+](=O)[O-])c1` here?
The GI50 was > 100 µM (inactive).

What about the GI50 (CCRF-CEM) of the same molecule?
Its GI50 is > 100 µM (inactive).

What about the GI50 (HT-29) of the same molecule?
Its GI50 is > 100 µM (inactive).

And the GI50 (KM12)?
Its GI50 is > 100 µM (inactive).

What about the GI50 (LOX IMVI) of the same molecule?
The GI50 was > 100 µM (inactive).

What about the GI50 (Malme-3M) of the same molecule?
The GI50 was > 100 µM (inactive).

What about the GI50 (NCI-H460) of the same molecule?
Its GI50 is > 100 µM (inactive).

What about the GI50 (RPMI-8226) of the same molecule?
Its GI50 is > 100 µM (inactive).

And the GI50 (RXF 393)?
The GI50 was > 100 µM (inactive).

What about the GI50 (SF-268) of the same molecule?
The GI50 was > 100 µM (inactive).

And the GI50 (SK-OV-3)?
The GI50 was > 100 µM (inactive).

And the GI50 (SNB-75)?
Its GI50 is > 100 µM (inactive).

What about the GI50 (SR) of the same molecule?
Its GI50 is > 100 µM (inactive).

And the GI50 (TK-10)?
Its GI50 is > 100 µM (inactive).

What about the GI50 (UO-31) of the same molecule?
Its GI50 is > 100 µM (inactive).

Which results are given for `Nc1c(C(=O)Nc2ccccc2O)[n+]([O-])c2ccccc2[n+]1[O-]`?
GI50 (A549): 36.1 µM (inactive); GI50 (HT-29): > 100 µM (inactive); GI50 (KM12): 79.3 µM (inactive); GI50 (Malme-3M): 83.9 µM (inactive); GI50 (NCI-H460): 27 µM (inactive); GI50 (OVCAR-5): > 100 µM (inactive); GI50 (RPMI-8226): 22.3 µM (inactive); GI50 (SF-539): 32.3 µM (inactive); GI50 (SK-OV-3): > 100 µM (inactive); GI50 (SNB-75): 47.9 µM (inactive); GI50 (SR): 44.3 µM (inactive); GI50 (UO-31): 37.5 µM (inactive)

Which GI50 (A549) does the source give for `Cc1cc(=O)oc2cc(OCc3nc4ccccc4c(=O)[nH]3)ccc12` here?
The GI50 was > 100 µM (inactive).

What about the GI50 (CCRF-CEM) of the same molecule?
The GI50 was > 100 µM (inactive).

What about the GI50 (HT-29) of the same molecule?
The GI50 was > 100 µM (inactive).

What about the GI50 (KM12) of the same molecule?
The GI50 was > 100 µM (inactive).

What about the GI50 (LOX IMVI) of the same molecule?
The GI50 was > 100 µM (inactive).

And the GI50 (Malme-3M)?
The GI50 was > 100 µM (inactive).

And the GI50 (NCI-H460)?
The GI50 was > 100 µM (inactive).

What about the GI50 (OVCAR-5) of the same molecule?
The GI50 was > 100 µM (inactive).

What about the GI50 (RPMI-8226) of the same molecule?
Its GI50 is > 100 µM (inactive).

And the GI50 (RXF 393)?
The GI50 was > 100 µM (inactive).

What about the GI50 (SF-268) of the same molecule?
The GI50 was > 100 µM (inactive).

And the GI50 (SF-539)?
Its GI50 is > 100 µM (inactive).

And the GI50 (SK-OV-3)?
The GI50 was > 100 µM (inactive).

What about the GI50 (SNB-75) of the same molecule?
Its GI50 is > 100 µM (inactive).

What about the GI50 (TK-10) of the same molecule?
Its GI50 is > 100 µM (inactive).

Which results are given for `CCC12C[N+]3([O-])CCc4c([nH]c5ccccc45)C(C(=O)OC)(c4cc5c(cc4OC)N(C)C4C(O)(C(=O)OC)C(OC(C)=O)C6(CC)C=CCN7CCC54C76)CC(C3)C1O2` (stereo not drawn)?
GI50 (A549): 0.826 µM (active); GI50 (CCRF-CEM): 0.401 µM (active); GI50 (HT-29): 0.342 µM (active); GI50 (KM12): 0.337 µM (active); GI50 (LOX IMVI): 1.09 µM (active); GI50 (Malme-3M): 1.61 µM (inactive); GI50 (NCI-H460): 0.424 µM (active); GI50 (OVCAR-5): 3.94 µM (inactive); GI50 (RPMI-8226): 0.331 µM (active); GI50 (RXF 393): 0.693 µM (active); GI50 (SF-268): 0.675 µM (active); GI50 (SF-539): 0.28 µM (active); GI50 (SK-OV-3): 0.336 µM (active); GI50 (SNB-75): 0.242 µM (active); GI50 (TK-10): 5.62 µM (inactive); GI50 (UO-31): 3.17 µM (inactive)

Which GI50 (A549) does the source give for `O=C1C(=O)N(c2nccs2)C(=O)C(=O)C1c1nc2ccccc2s1` here?
The GI50 was > 100 µM (inactive).

What about the GI50 (HT-29) of the same molecule?
Its GI50 is > 100 µM (inactive).

What about the GI50 (KM12) of the same molecule?
The GI50 was > 100 µM (inactive).

And the GI50 (LOX IMVI)?
The GI50 was > 100 µM (inactive).

And the GI50 (Malme-3M)?
The GI50 was > 100 µM (inactive).

What about the GI50 (NCI-H460) of the same molecule?
The GI50 was > 100 µM (inactive).

What about the GI50 (OVCAR-5) of the same molecule?
The GI50 was > 100 µM (inactive).

What about the GI50 (RPMI-8226) of the same molecule?
The GI50 was > 100 µM (inactive).

What about the GI50 (RXF 393) of the same molecule?
The GI50 was > 100 µM (inactive).

What about the GI50 (SF-268) of the same molecule?
The GI50 was > 100 µM (inactive).

And the GI50 (SF-539)?
Its GI50 is > 100 µM (inactive).

And the GI50 (SK-OV-3)?
Its GI50 is > 100 µM (inactive).

What about the GI50 (SNB-75) of the same molecule?
The GI50 was > 100 µM (inactive).

And the GI50 (TK-10)?
The GI50 was > 100 µM (inactive).

And the GI50 (UO-31)?
The GI50 was > 100 µM (inactive).

What does the source list for `CCc1c(C#N)c(=O)[nH]c(=O)n1CCN1CCN(C(=O)NCCCCCCNC(=O)N2CCN(CCn3c(CC)c(C#N)c(=O)[nH]c3=O)CC2)CC1`?
GI50 (A549): > 100 µM (inactive); GI50 (CCRF-CEM): > 100 µM (inactive); GI50 (HT-29): > 100 µM (inactive); GI50 (LOX IMVI): > 100 µM (inactive); GI50 (NCI-H460): > 100 µM (inactive); GI50 (RPMI-8226): > 100 µM (inactive); GI50 (SF-539): > 100 µM (inactive); GI50 (SK-OV-3): > 100 µM (inactive); GI50 (SNB-75): > 10 µM (inactive); GI50 (TK-10): > 100 µM (inactive)

With `COc1ccccc1-c1cc(=O)c2cc(C)c(C)c(C(=O)O)c2o1` as the molecule, how does the GI50 (A549) read?
The GI50 was > 100 µM (inactive).

What about the GI50 (CCRF-CEM) of the same molecule?
The GI50 was > 100 µM (inactive).

And the GI50 (HT-29)?
The GI50 was > 100 µM (inactive).

What about the GI50 (KM12) of the same molecule?
Its GI50 is > 100 µM (inactive).

And the GI50 (LOX IMVI)?
The GI50 was > 100 µM (inactive).

What about the GI50 (Malme-3M) of the same molecule?
The GI50 was > 100 µM (inactive).

And the GI50 (NCI-H460)?
Its GI50 is > 100 µM (inactive).

What about the GI50 (OVCAR-5) of the same molecule?
Its GI50 is > 100 µM (inactive).

What about the GI50 (RPMI-8226) of the same molecule?
Its GI50 is > 100 µM (inactive).

And the GI50 (SF-268)?
Its GI50 is > 100 µM (inactive).

What about the GI50 (SF-539) of the same molecule?
Its GI50 is > 100 µM (inactive).

What about the GI50 (SK-OV-3) of the same molecule?
Its GI50 is > 100 µM (inactive).

And the GI50 (SNB-75)?
Its GI50 is 40.2 µM (inactive).

And the GI50 (TK-10)?
The GI50 was > 100 µM (inactive).

What about the GI50 (UO-31) of the same molecule?
The GI50 was > 100 µM (inactive).

With `O=C1N(c2ccc(Cl)cc2)C(=O)C2(SC=NN2Cc2ccccc2)N1c1ccc(Cl)cc1` (stereo not drawn) as the molecule, how does the GI50 (A549) read?
The GI50 was 96.4 µM (inactive).

What about the GI50 (CCRF-CEM) of the same molecule?
The GI50 was 7.57 µM (inactive).

And the GI50 (HT-29)?
Its GI50 is > 100 µM (inactive).

What about the GI50 (KM12) of the same molecule?
The GI50 was > 100 µM (inactive).

What about the GI50 (LOX IMVI) of the same molecule?
Its GI50 is > 100 µM (inactive).

What about the GI50 (Malme-3M) of the same molecule?
The GI50 was > 100 µM (inactive).

And the GI50 (NCI-H460)?
The GI50 was > 100 µM (inactive).

What about the GI50 (RPMI-8226) of the same molecule?
The GI50 was 8.34 µM (inactive).

What about the GI50 (RXF 393) of the same molecule?
Its GI50 is 37.9 µM (inactive).

What about the GI50 (SF-268) of the same molecule?
The GI50 was > 100 µM (inactive).

And the GI50 (SF-539)?
The GI50 was 34.3 µM (inactive).

And the GI50 (SK-OV-3)?
The GI50 was > 100 µM (inactive).

And the GI50 (SNB-75)?
The GI50 was 64.7 µM (inactive).

What about the GI50 (SR) of the same molecule?
The GI50 was 9.95 µM (inactive).

And the GI50 (TK-10)?
The GI50 was > 100 µM (inactive).

What about the GI50 (UO-31) of the same molecule?
The GI50 was > 100 µM (inactive).

`CC1(Cc2ccccc2)NC(=S)NC1=O` (stereo not drawn) was tested. Which GI50 (A549) did it give?
The GI50 was > 100 µM (inactive).

What about the GI50 (HT-29) of the same molecule?
Its GI50 is > 100 µM (inactive).

What about the GI50 (KM12) of the same molecule?
The GI50 was > 100 µM (inactive).

And the GI50 (LOX IMVI)?
Its GI50 is > 100 µM (inactive).

And the GI50 (Malme-3M)?
Its GI50 is > 100 µM (inactive).

What about the GI50 (NCI-H460) of the same molecule?
The GI50 was > 100 µM (inactive).

What about the GI50 (OVCAR-5) of the same molecule?
Its GI50 is > 100 µM (inactive).

And the GI50 (RXF 393)?
Its GI50 is > 100 µM (inactive).

And the GI50 (SF-268)?
The GI50 was > 100 µM (inactive).

And the GI50 (SF-539)?
The GI50 was > 100 µM (inactive).

What about the GI50 (SNB-75) of the same molecule?
Its GI50 is > 100 µM (inactive).

What about the GI50 (SR) of the same molecule?
Its GI50 is > 100 µM (inactive).

What about the GI50 (TK-10) of the same molecule?
The GI50 was > 100 µM (inactive).

What about the GI50 (UO-31) of the same molecule?
The GI50 was > 100 µM (inactive).
